Measurements published in patent US11311522B1 (Cavion, Inc., priority 2018, dated 2022).

Legend:
[1] = molecular target: cannabinoid 2 receptor (CB2) (Homo sapiens, UniProt P34972); experiment: Cannabinoid 2 receptor binding
[2] = Excretion of 14C-labeled CX-8998 in rats; format: in vivo, rat; settings: 20 mg/kg oral
Excerpt: Glucuronide conjugates of the oxygenated metabolites are detected in human, monkey, and dog hepatocyte preparations. […] However, the abundance of CYP3A5, CYP2C19, and CYP2D6 in human liver microsomes is low (2%-5%) relative to the primary contributors, CYP3A4 (˜30%) and CYP2C9 (˜20%). […] Information on reproductive and developmental toxicology was obtained in a 28-day pivotal female fertility study in rats and in preliminary embryo-fetal development studies in rats and rabbits.

[3] = tested on: slow wave activity; experiment: PN003: polysomnogram, slow wave activity; format: in vivo, human; settings: 12 mg single dose, 24 subjects, Study PN003
Protocol: A washout period of at least 2 weeks separated the treatment periods. […] The PSG recordings were initiated at each subject's habitual bedtime and continued for 8 hours.

[4] = PN001/Part II: safety and tolerability; format: in vivo, human
Protocol: No serious adverse events were reported in the subjects who received CX-8998. One placebo-treated subject experienced a serious adverse event (peritonsillar abscess). The subject was admitted to the hospital for treatment with oral and intravenous antibiotics and was discontinued from the study because of this event. […] Each treatment period was separated from the previous one by an approximate 2-week washout, and all treatments were administered in the morning after an overnight fast. Electroencephalograms were recorded before and at selected time points for up to 24 hours after dosing in each treatment period. Cognitive and subjective assessments, including the Karolinska Sleepiness Scale and Bond-Lader visual analog scale, were also performed. 5.3.1.2.2 Pharmacodynamic Data Alpha rhythm is seen posterior brain regions in healthy adults during quiet wakefulness. It originates in the thalamus and is driven by Cav3 channel activity (Schreckenberger, 2004). Agitated, awake individuals may not display an alpha rhythm. […] Reductions in alpha power during the eyes closed position, were generally observed throughout the 24-hour postdose evaluation period for the 18 mg dose and were generally consistent across electrode sites.

[5] = tested on: patients with schizophrenia; experiment: PN004: efficacy in acutely psychotic patients with schizophrenia (PANSS); settings: human, in vivo
Excerpt: The primary efficacy endpoint was the mean change from baseline in the Positive and Negative Syndrome Scale (PANSS) total score at Week 4; secondary efficacy endpoints included responder rates on the PANSS total score at Week 4 and the change from baseline in the Clinical Global Impressions—Severity of Illness Scale at Week 4. Safety was monitored by adverse events, laboratory evaluations, ECGs, Holter monitoring, vital signs, the Simpson-Angus Scale, the Barnes Akathisia Rating Scale, the Abnormal Involuntary Movement Scale, and the Columbia Suicide-Severity Rating scale (C-SSRS).

[6] = doses up to 6000 μg/plate
[7] = in vivo; settings: female, rat, po

Chain of cannabinoid 2 receptor (CB2) (P34972 whole entry, species assumed): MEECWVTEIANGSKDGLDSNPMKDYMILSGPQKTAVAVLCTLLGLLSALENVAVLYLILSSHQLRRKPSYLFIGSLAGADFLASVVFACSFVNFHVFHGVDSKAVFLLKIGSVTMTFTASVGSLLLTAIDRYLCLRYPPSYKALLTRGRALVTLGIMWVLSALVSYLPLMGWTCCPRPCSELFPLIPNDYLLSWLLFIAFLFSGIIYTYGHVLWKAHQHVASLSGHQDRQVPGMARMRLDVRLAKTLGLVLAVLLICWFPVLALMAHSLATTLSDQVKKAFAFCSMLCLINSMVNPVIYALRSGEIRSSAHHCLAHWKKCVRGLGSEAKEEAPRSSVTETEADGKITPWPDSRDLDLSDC

CC(C)c1ccc(CC(=O)N[C@H](C)c2ccc(OCC(F)(F)F)cn2)cc1 [CX-8998]
inhibition at 10 µM ([1]; 10 μM): 53%
IC50 ([1]; calculated): 5.34 µM
Dose excreted in feces as unchanged drug [2]: Less than 1%
Radioactivity in feces [2]: approximately 5%
Radioactivity recovered in bile [2]: 46%
Radioactivity recovered in urine [2]: 43%
Recovered radioactivity excreted in the first day [2]: > 85%
Recovery of label after 72 hours [2]: ~96%
Slow Wave Activity during the First One-Third of the Sleep Period, Geometric Mean [3]: 26.36 μV^2/Hz
Slow Wave Activity during the First One-Third of the Sleep Period, Raw Value Mean [3]: 30.51 μV^2/Hz
At least 1 adverse event ([4]; 5 mg): 8 (66.7) n (%)
Dizziness ([4]; 5 mg): 1 (8.3) n (%)
Drowsiness ([4]; 5 mg): 3 (25.0) n (%)
Euphoric mood ([4]; 5 mg): 1 (8.3) n (%)
Feeling of relaxation ([4]; 5 mg): 1 (8.3%) n (%)
Floating feeling ([4]; 5 mg): 1 (8.) n (%)
Gastrointestinal Disorders ([4]; 5 mg): 2 (16.7) n (%)
Headache ([4]; 5 mg): 1 (8.3) n (%)
Intermittent headache ([4]; 5 mg): 0 n (%)
Nausea ([4]; 5 mg): 2 (16.7) n (%)
Nervous System Disorders ([4]; 5 mg): 4 (33.3) n (%)
Psychiatric Disorders ([4]; 5 mg): 4 (33.3) n (%)
Sleep disturbance ([4]; 5 mg): 1 (8.3) n (%)
Vivid dreams ([4]; 5 mg): 2 (16.7) n (%)
At least 1 adverse event ([4]; 18 mg): 11 (91.7) n (%)
Dizziness ([4]; 18 mg): 3 (25.0) n (%)
Drowsiness ([4]; 18 mg): 3 (25.0) n (%)
Euphoric mood ([4]; 18 mg): 3 (25.0) n (%)
Feeling of relaxation ([4]; 18 mg): 3 (25.0) n (%)
Floating feeling ([4]; 18 mg): 1 (8.3) n (%)
Gastrointestinal Disorders ([4]; 18 mg): 1 (8.3) n (%)
Headache ([4]; 18 mg): 3 (25.0) n (%)
Intermittent headache ([4]; 18 mg): 2 (16.7) n (%)
Nausea ([4]; 18 mg): 1 (8.3) n (%)
Nervous System Disorders ([4]; 18 mg): 8 (66.7) n (%)
Psychiatric Disorders ([4]; 18 mg): 6 (50.0) n (%)
Sleep disturbance ([4]; 18 mg): 2 (16.7) n (%)
Vivid dreams ([4]; 18 mg): 2 (16.7) n (%)
Tolerability ([4]; single doses of 5 and 18 mg): generally well tolerated
PANSS total score change at Week 4 and secondary endpoints vs placebo [5]: No statistically significant differences
Ames assay result [6]: negative
AUC ([7]; 10 mg/kg/day): 20.7 µM·h
Tmax ([7]; 10 mg/kg/day): 3.4 h
AUC ([7]; 100 mg/kg/day): 94.6 µM·h
AUC ([7]; 500 mg/kg/day): 219 µM·h
Tmax ([7]; 500 mg/kg/day): 4.8 h
